We go through 3 substances from publication PMC10799042 (Scientific Reports, 2024).

The test system of test [1] is scopolamine-induced memory impairment and learning disability in mice. Put plainly: Morris water maze, scopolamine-induced memory impairment. It counts as in vivo, Swiss albino male mice. Particulars: for escape latency versus scopolamine-treated mice (in words): day 1 to 5; for Escape latency, 1st Day / Escape latency, 2nd Day / Escape latency, 3rd Day / Escape latency, 4th Day / Escape latency, 5th Day: mice, scopolamine 1.5 mg/kg i.p., donepezil and compounds 2 mg/kg p.o. with scopolamine, mean ± SD; for Escape latency, 1st Day: day 1; for Escape latency, 2nd Day: day 2; for Escape latency, 3rd Day: day 3; for Escape latency, 4th Day: day 4; for Escape latency, 5th Day: day 5. How it is done:
Swiss albino male mice weighing 25–30 g were purchased from LLRUVAS in Hisar, Haryana, India. […] The housing, care, and handling of the animals were done per CPCSEA requirements. The animals were exposed to the laboratory setting for seven days before the experiment.
(§1) The animals were properly acclimated before being randomly placed into 12 groups (I-XII), with six animals in each group. […] Following the delivery of the dose to the mouse, the rodent's behaviour was assessed using the traditional Morris water maze (MWM) technique.
Five days of continuous animal evaluations were conducted using the MWM model. […] The tank was placed in a dim laboratory, and using wires anchored at the pool's edge at an angle to one another, it was divided into four equal pieces (P1–P4). A stage in the targeted area (P4) of the pool with an upper face (6 × 6 cm^2) immersed in the water (1.0 cm below the surface). The location of the stage stayed the same throughout the evaluation. The animals were subjected to water pools throughout the evaluation by turning their heads towards the wall from any of the four segments, namely P1-P4, and being given 90 s to recognise the stage placed in a pool. If the animal couldn't get to the stage in 90 s, they were gently guided onto the stage under supervision. On the sixth day, one of the parameters used to determine if cognitive impairments have recovered was the time it took the mice to travel from the initial portion to locate the hidden stage in the intended part (escape latency). […]

For test [2], the target named is T1, Acetylcholinesterase (AChE) (Mus musculus, UniProt P21836).
T1 sequence (P21836 32-614): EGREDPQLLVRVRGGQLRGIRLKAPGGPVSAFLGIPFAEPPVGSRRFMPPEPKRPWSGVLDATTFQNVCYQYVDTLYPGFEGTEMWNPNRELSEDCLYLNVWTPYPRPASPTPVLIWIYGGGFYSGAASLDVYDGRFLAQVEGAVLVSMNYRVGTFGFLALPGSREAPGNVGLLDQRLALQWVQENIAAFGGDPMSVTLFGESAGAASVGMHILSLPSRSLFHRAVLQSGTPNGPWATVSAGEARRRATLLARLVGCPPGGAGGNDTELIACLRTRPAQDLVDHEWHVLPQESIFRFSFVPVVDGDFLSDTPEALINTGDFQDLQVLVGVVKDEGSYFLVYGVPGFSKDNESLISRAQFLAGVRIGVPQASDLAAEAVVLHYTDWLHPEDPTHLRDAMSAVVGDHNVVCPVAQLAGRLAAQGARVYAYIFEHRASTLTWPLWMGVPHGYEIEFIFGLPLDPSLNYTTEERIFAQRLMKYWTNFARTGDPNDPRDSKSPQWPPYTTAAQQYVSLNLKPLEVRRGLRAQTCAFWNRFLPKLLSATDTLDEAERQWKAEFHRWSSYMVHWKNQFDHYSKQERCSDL
Particulars: brain THS of mice, scopolamine 1.5 mg/kg i.p.; donepezil and compounds 2 mg/kg p.o.; mean ± SD. How it is done:
as §1
(§2) After five days of behavioral assessment, the mice's brains were removed and homogenized (blended) in chilled phosphate buffer (pH 7.4) at a concentration of 10% w/v (weight per volume). The homogenates were then centrifuged (spun at high speed) for 20 min at 4 °C to separate the supernatant (liquid) from the pellet (solid material). The supernatant was then collected to measure biological substances.
Employing Ellman et al., methodology, AChE levels were quantified in tissue homogenate supernatant (THS) to evaluate cholinergic abnormalities.

A further test relates to malondialdehyde (MDA). Put plainly: Lipid peroxidation (LPO) assay, MDA in brain homogenate. The format is in vivo. Particulars: brain THS of mice, scopolamine 1.5 mg/kg i.p.; donepezil and compounds 2 mg/kg p.o.; mean ± SD. The protocol: as §1, §2
The amount of malondialdehyde (MDA), a marker of lipid peroxidation (LPO), was measured using a method described by Wills[10]. Tris–HCl buffer and THS were mixed and incubated at 37 °C for 2 h with 10% trichloroacetic acid. After incubation, the mixture was centrifuged again (at 1000 rpm for 10 min). […] After cooling, 1.0 mL of double-distilled water was added, and the absorbance was measured at 532 nm.

A further test has as its system nitrite. As to the kind of experiment: Nitrite assay (Greiss reagent) in brain homogenate. The format is in vivo. The following applies: brain THS of mice, scopolamine 1.5 mg/kg i.p.; donepezil and compounds 2 mg/kg p.o.; mean ± SD. How it is done: as §1, §2
The amount of nitric oxide in THS was calculated using Greiss' reagent, a mixture of chemicals that reacts with nitric oxide to produce a colored product. The absorbance of the colored product was computed at 540 nm and the concentration of nitrite was determined using a standard curve of known nitrite concentrations.

The test system of test [3] is Reduced glutathione (GSH). Put plainly: Reduced glutathione (GSH) assay in brain homogenate. The format is in vivo. The following applies: brain THS of mice, scopolamine 1.5 mg/kg i.p.; donepezil and compounds 2 mg/kg p.o.; mean ± SD. The protocol:
as §1, §2
The method described by Jollow et al. was used to measure glutathione (GSH) levels. First, 1.0 mL of 4% sulfosalicylic acid was added to 1.0 mL of tissue homogenate to precipitate the GSH. The mixture was then incubated at 4 °C for 1 h and centrifuged at 1200 rpm for 10 min at 4 °C. The supernatant was collected and diluted to a final volume of 3.0 mL with phosphate buffer and Ellman's reagent. […]

Test [4] concerns Superoxide dismutase (SOD). As to the kind of experiment: Superoxide dismutase (SOD) assay in brain homogenate. The following applies: brain THS of mice, scopolamine 1.5 mg/kg i.p.; donepezil and compounds 2 mg/kg p.o.; mean ± SD. It counts as in vivo. How it is done:
as §1, §2
The samples contained EDTA, sodium carbonate, and NBT, and the assay was performed using Kono's method. Each sample tube contained 2.0 mL of this mixture, as well as THS and hydroxylamine. The absorbance of the mixture was measured at 560 nm every 30 or 60 s for 2 min to track changes in absorbance.

For another test, the system named is Catalase. Put plainly: Catalase assay in brain homogenate. The format is in vivo. Particulars: brain THS of mice, scopolamine 1.5 mg/kg i.p.; donepezil and compounds 2 mg/kg p.o.; mean ± SD. The protocol:
as §1, §2
Employing the methodology of Luck et al., catalase activity was quantified. The sample contained H2O2 (1.0 mL, 0.019 M), phosphate buffer (1.95 mL, 0.05 M, pH 7.0), and THS (0.05 mL). The optical density was computed at a wavelength of 240 nm. The findings were shown as μM H2O2 decomposition/min/mg protein[13].

Consider “6-chloro-N-(1-(1-(3,4-dimethoxybenzyl)-2-oxopyrrolidin-3-yl)piperidin-4-yl)pyridine-3-sulfonamide [Compound 9]”, for which, in test [1] (2 mg/kg, compared with donepezil 2 mg/kg), the “improvement of cognitive defects (in words)” value is listed as “most potent”. In test [1] (2 mg/kg), the “escape latency versus scopolamine-treated mice (in words)” value is “significantly reduced escape latency”. Besides, in test [1], the “Escape latency, 1st Day” value was 80.5 ± 0.84 s; the “Escape latency, 2nd Day” value is 40.83 ± 0.98 s; the “Escape latency, 3rd Day” value worked out at 23.5 ± 2.92 s; the “Escape latency, 4th Day” value is on record as 15.83 ± 3.37 s. Further, the “Escape latency, 5th Day” value in test [1] is listed as 2.66 ± 0.68 s. Also, the “μM of AChE/min/mg protein” value in test [2] is 0.01 ± 0.01 μM of AChE/min/mg protein. Besides, the “LPO assay, MDA levels” value in the test on malondialdehyde (MDA) is 8.48 ± 0.02 nM/mg of tissue. Besides, the “Nitrite assay, nitrite conc.” value in the test on nitrite is on record as 10.42 ± 0.04 μM/mg protein. In addition, the “GSH assay, μmol of GSH/mg Protein” value in test [3] is 0.11 ± 0.002 μmol of GSH/mg Protein. For the same substance, the “SOD assay, SOD units/mg protein” value in test [4] came out at 4.09 ± 0.02 SOD units/mg protein. Moreover, in the test on Catalase, the “Catalase assay, Catalase activity” value worked out at 6.23 ± 0.02 min⁻¹.

Consider “N-(1-(1-(3,4-dimethoxybenzyl)-2-oxopyrrolidin-3-yl)piperidin-4-yl)-2,4-difluorobenzenesulfonamide [Compound 10]”, for which the “escape latency versus scopolamine-treated mice (in words)” value in test [1] (2 mg/kg) is listed as “significantly reduced escape latency”. In addition, in test [1], the “Escape latency, 1st Day” value came to 80.33 ± 1.09 s; the “Escape latency, 2nd Day” value is reported as 36 ± 1.09 s; the “Escape latency, 3rd Day” value is 25.33 ± 1.79 s; the “Escape latency, 4th Day” value is reported as 17 ± 1.67 s. Further, the “Escape latency, 5th Day” value in test [1] is listed as 3.66 ± 1.88 s. The “μM of AChE/min/mg protein” value in test [2] was 0.01 ± 0.01 μM of AChE/min/mg protein. Also, in the test on malondialdehyde (MDA), the “LPO assay, MDA levels” value is on record as 8.52 ± 0.05 nM/mg of tissue. Further, the “Nitrite assay, nitrite conc.” value in the test on nitrite is on record as 12.82 ± 0.04 μM/mg protein. Further, the “GSH assay, μmol of GSH/mg Protein” value in test [3] is 0.10 ± 0.005 μmol of GSH/mg Protein. In addition, the “SOD assay, SOD units/mg protein” value in test [4] came to 3.07 ± 0.04 SOD units/mg protein. Besides, in the test with Catalase, the “Catalase assay, Catalase activity” value came out at 4.3 ± 0.01 min⁻¹.

In the case of “N-(1-(1-(3,4-dimethoxybenzyl)-2-oxopyrrolidin-3-yl)piperidin-4-yl)-4-fluorobenzenesulfonamide [Compound 8]”, the “escape latency versus scopolamine-treated mice (in words)” value in test [1] (2 mg/kg) was “significantly reduced escape latency”. Moreover, in test [1], the “Escape latency, 2nd Day” value was 43 ± 2.68 s; the “Escape latency, 3rd Day” value was 22.66 ± 1.79 s; the “Escape latency, 4th Day” value amounted to 14.16 ± 2.56 s; the “Escape latency, 5th Day” value stood at 5.66 ± 1.97 s. The “μM of AChE/min/mg protein” value in test [2] was 0.01 ± 0.01 μM of AChE/min/mg protein. In addition, the “LPO assay, MDA levels” value in the test on malondialdehyde (MDA) was 9.71 ± 0.03 nM/mg of tissue. Also, the “Nitrite assay, nitrite conc.” value in the test with nitrite worked out at 11.92 ± 0.05 μM/mg protein. The “GSH assay, μmol of GSH/mg Protein” value in test [3] is 0.11 ± 0.001 μmol of GSH/mg Protein. For the same substance, in test [4], the “SOD assay, SOD units/mg protein” value came to 4.07 ± 0.03 SOD units/mg protein. Moreover, in the test with Catalase, the “Catalase assay, Catalase activity” value was 5.23 ± 0.02 min⁻¹.
